Several values for one entry are separate records, joined by “and”; a condition that tells them apart may be missing. Identical values can stand only once.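 Growth conditions: 96-well plates. Treatment: test compound, 48 hours, 5 concentrations. Analysis: linear interpolation between bracketing concentrations; unreached endpoints set to highest concentration. GI50 is the concentration that inhibits growth by half. TGI marks complete inhibition of growth.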
Assays:
Assay in all cases: NCI anticancer screen, dose series, 48 h
HCC-2998 colon = test system: HCC-2998 colon
HCT-116 colon = test system: HCT-116 colon
K-562 leukemia = test system: K-562 leukemia
MCF7 breast = test system: MCF7 breast
OVCAR-5 ovarian = test system: OVCAR-5 ovarian
SK-MEL-28 melanoma = test system: SK-MEL-28 melanoma
SNB-19 CNS = test system: SNB-19 CNS
UO-31 renal = test system: UO-31 renal
SR leukemia = test system: SR leukemia
CCRF-CEM leukemia = test system: CCRF-CEM leukemia

| SMILES | TGI (HCC-2998 colon) [µM] | TGI (HCT-116 colon) [µM] | TGI (K-562 leukemia) [µM] | TGI (MCF7 breast) [µM] | TGI (OVCAR-5 ovarian) [µM] | TGI (SK-MEL-28 melanoma) [µM] | TGI (SNB-19 CNS) [µM] | TGI (UO-31 renal) [µM] | TGI (SR leukemia) [µM] | TGI (CCRF-CEM leukemia) [µM] | GI50 (K-562 leukemia) | GI50 (HCC-2998 colon) [µM] | GI50 (HCT-116 colon) [µM] | GI50 (MCF7 breast) [µM] | GI50 (OVCAR-5 ovarian) [µM] | GI50 (SK-MEL-28 melanoma) [µM] | GI50 (SNB-19 CNS) [µM] | GI50 (SR leukemia) [µM] |
| --- | --- | --- | --- | --- | --- | --- | --- | --- | --- | --- | --- | --- | --- | --- | --- | --- | --- | --- |
| CC1OC(OC2C(O[C@H]3CC[C@@]4(C)C(=CC[C@H]5[C@@H]6C[C@@H]7O[C@]8(CC[C@@H](CO)CO8)[C@@H](C)[C@@H]7[C@@]6(C)CC[C@@H]54)C3)OC(CO)C(O)C2OC2OC(CO)C(O)C(O)C2O)C(O)C(O)C1O (stereo not given in full) | 2.97 | 3.02 | 3.17 | 3.15 | 4.08 | 3.46 | 3.96 | 5.46 |  |  |  |  |  |  |  |  |  |  |
| CCOC(=O)C(=Cc1[nH]c2ccccc2c1-c1c[nH]c2ccccc12)C(=O)OCC | 25 | 22.8 | 26.6 | 22.2 | 30.3 |  | 28.3 | 26.3 | 32.7 |  |  |  |  |  |  |  |  |  |
| Cc1cccc(N=NC(=O)NNc2cccc(C)c2C)c1C | 31.7 | 72.2 | > 100 |  | > 100 | > 100 | > 100 | > 100 | > 100 |  |  |  |  |  |  |  |  |  |
| O=C(NI1OC(=O)c2ccccc21)c1ccc(Cl)cc1 | > 100 | > 100 | > 100 | > 100 | > 100 | > 100 |  | > 100 |  | > 100 |  |  |  |  |  |  |  |  |
| O=Cc1c(C(=O)O)[nH]c(=O)[nH]c1=O |  | > 100 | > 100 |  | > 100 | > 100 | > 100 | > 100 |  | > 100 |  |  |  |  |  |  |  |  |
| COc1cc(/C=C(\C#N)C(N)=O)cc(Br)c1O | > 100 | > 100 | > 100 | > 100 | > 100 | > 100 | > 100 | > 100 |  | > 100 | 32.1 µM and 43.2 µM |  |  |  |  |  |  |  |
| Cc1ccc(/C=C2\CCCc3ccccc3C2=O)cc1 |  | 29.1 | 53.7 | 47.3 | 29.5 | > 100 | 89.2 | > 100 | 37.1 | 36.5 |  |  |  |  |  |  |  |  |
| CC(=O)OC(/C=C/c1ccccc1)=C(OC(C)C)/C1=C(\c2ccccc2)SCCCSC1=O | > 100 | > 100 | > 100 | > 100 | > 100 | > 100 | > 100 | > 100 |  | > 100 |  |  |  |  |  |  |  |  |
| COC1C=CC(O)C(CO)O1 (stereo not given) | > 100 | > 100 | > 100 |  | > 100 | > 100 |  | > 100 | > 100 | > 100 |  |  |  |  |  |  |  |  |
| OCC(O)COCn1nncc1Cn1ncc2c(SCc3ccccc3)ncnc21 (stereo not given) | > 100 | > 100 |  | > 100 | > 100 | > 100 | > 100 | > 100 |  | > 100 |  |  |  |  |  |  |  |  |
| CCOc1cn(C2CC(O)C(CO)O2)c(=O)[nH]c1=O (stereo not given) | > 100 | > 100 |  | > 100 | > 100 | > 100 | > 100 | > 100 |  | > 100 |  |  |  |  |  |  |  |  |
| O=C1CSC(c2cccc(Oc3ccccc3)c2)N1c1ccc(Cl)cc1 (stereo not given) |  | 37.9 | 69.9 | 38.5 | > 100 | > 100 | > 100 | > 100 | 46.9 | > 100 |  |  |  |  |  |  |  |  |
| COCN(CCC1=CCCCC1)C(=O)OC | > 100 | > 100 | > 100 | > 100 | > 100 | > 100 | > 100 | > 100 | > 100 |  |  |  |  |  |  |  |  |  |
| CCOCc1nc2c(OC)cc(-c3nc4ccc(N5CCN(C)CC5)cc4[nH]3)c(OC)c2[nH]1 |  | > 100 | > 100 | > 100 | > 100 | 36.3 | > 100 | 41.8 | 59.7 | 34 |  |  |  |  |  |  |  |  |
| COc1ccccc1/C=C1\SC(=S)N(/C=C2\C(=O)Oc3ccccc3C2=O)C1=O |  | > 100 | > 100 | > 100 | > 100 |  | > 100 | 83.2 |  | > 100 |  |  |  |  |  |  |  |  |
| COc1cc(Cn2c3c(c4cc(O)ccc42)Cc2ccccc2C3=O)cc(OC)c1 |  | > 100 | > 100 | 78.6 | 56.2 | > 100 | > 100 | > 100 | 53.3 | 86 |  |  |  |  |  |  |  |  |

| SMILES | TGI (HCC-2998 colon) [µM] | TGI (HCT-116 colon) [µM] | TGI (K-562 leukemia) [µM] | TGI (MCF7 breast) [µM] | TGI (OVCAR-5 ovarian) [µM] | TGI (SK-MEL-28 melanoma) [µM] | TGI (SNB-19 CNS) [µM] | TGI (UO-31 renal) [µM] | TGI (SR leukemia) [µM] | TGI (CCRF-CEM leukemia) [µM] | GI50 (K-562 leukemia) | GI50 (HCC-2998 colon) [µM] | GI50 (HCT-116 colon) [µM] | GI50 (MCF7 breast) [µM] | GI50 (OVCAR-5 ovarian) [µM] | GI50 (SK-MEL-28 melanoma) [µM] | GI50 (SNB-19 CNS) [µM] | GI50 (SR leukemia) [µM] |
| --- | --- | --- | --- | --- | --- | --- | --- | --- | --- | --- | --- | --- | --- | --- | --- | --- | --- | --- |
| COC[C@@H](C[C@H]1O[C@@](O)([C@H](O)[C@@H]2C[C@H](OC)[C@@H](O)CC/C=C(C)/C=C/[C@@H](O[C@@H]3O[C@@H](C)[C@H](OC)[C@@H](O)[C@@H]3O)[C@H](C)/C=C(C)/C=C(C)/C=C(\C)C(=O)O2)[C@H](C)[C@@H](O)[C@H]1C)O[C@H]1C[C@](C)(O)[C@@H](O[C@H]2C[C@@H](OC)[C@H](O)[C@@H](C)O2)C(C)O1 (stereo not given in full) | > 100 | > 100 | > 46.7 | > 100 | > 100 | > 100 | > 100 | > 100 |  |  |  |  |  |  |  |  |  |  |
| NN/C(=N\S(=O)(=O)c1cc2ccccc2s1)Nc1ccc(Cl)cc1 |  | 30.6 | > 100 | 42.4 | 48.2 | 75 | 64.6 | 32.1 | 73.9 |  |  |  |  |  |  |  |  |  |
| CC(=O)OCC12C(=O)C[C@@H](C)C3(CC(c4ccoc4)OC3=O)C1CCC(OC(C)=O)C21CO1 (stereo not given in full) | > 100 | > 100 | > 100 | > 100 | > 100 | > 100 | > 100 | > 100 | > 100 |  |  |  |  |  |  |  |  |  |
| C(=Nc1ccc(-c2nc3ccccc3[nH]2)cc1)c1cccs1 |  | > 100 | > 100 | > 100 | > 100 | > 100 | > 100 | > 100 | > 100 | > 100 |  |  |  |  |  |  |  |  |
| NC(N)=NCCC[C@H](N)C(=O)NCC(=O)N[C@@H](CC(=O)O)c1ncc(NC(=O)C(F)(F)F)o1 | > 25 | > 25 | > 25 | > 25 | > 25 | > 25 |  | > 25 |  | > 25 |  |  |  |  |  |  |  |  |
| CNc1ccc(C(=O)CC(O)CCC(C)C2OC(=O)CC(O)CC(=O)CC(O)CC(O)CC(O)CC(O)CC3(O)CC(O)C(C(=O)OC)C(CC(O[C@@H]4O[C@H](C)[C@@H](O)[C@H](N)[C@@H]4O)/C=C/C=C/C=C/C=C/C=C/C=C/C=C/C2C)O3)cc1 (stereo not given in full) | 12.3 | > 100 | 40.2 | 19 | > 100 | 2.53 | > 100 |  | 5.47 |  | 5.05 µM | 3.25 | 3.46 | 3.18 | 3.7 | 1.12 | 3.82 | 2.33 |
| O=C1C=CC[C@H]2O[C@@H](COC(=O)Cc3ccccc3)C[C@H]2O1 |  |  | > 100 | > 100 | > 100 | 74.4 | > 100 | > 100 | > 100 | > 100 |  |  |  |  |  |  |  |  |
| COc1ccc(C(=C(Cl)c2ccccc2)c2ccc(OC)cc2)cc1 |  | > 100 | > 100 | > 100 | > 100 | > 100 | > 100 | > 100 |  | > 100 |  |  |  |  |  |  |  |  |
| CCOC(=O)c1nc2ccc(C(F)(F)F)cc2nc1NCc1cc(OC)c(OC)c(OC)c1 | > 100 | > 100 |  | > 100 | > 100 | > 100 | > 100 | 99.5 | 48.5 |  |  |  |  |  |  |  |  |  |
| O=C1CCC(c2ccc(Cl)cc2)=NN1c1nsc2ccccc12 | 44.8 | 51.2 | 68 |  | > 100 | > 100 | > 100 | 59.1 | 54.8 | 80 |  |  |  |  |  |  |  |  |
| CC1NC(=O)CC(c2ccccc2)N(N=O)C1c1ccccc1 (stereo not given) | > 100 | > 100 | > 88.5 | > 100 | > 100 | > 100 | > 91.3 | > 100 |  | 71.6 |  |  |  |  |  |  |  |  |
| O=C1CC(=Nc2ccc(Cl)cc2)C(c2ccccc2)N1c1ccccc1 (stereo not given) | > 100 | 65.1 | > 100 | > 100 |  | > 100 | > 100 | > 100 | 45.5 |  |  |  |  |  |  |  |  |  |
| COC(CNC(=O)C(C)NC(=O)CCc1ccccc1)OC (stereo not given) |  | > 100 | > 100 | > 100 | > 100 | > 100 | > 100 | > 100 | > 100 | > 100 |  |  |  |  |  |  |  |  |
| CC12C(=O)CC(CC1=O)C2(C)C |  | > 100 | > 100 | > 100 | > 100 | > 100 | > 100 | > 100 |  | > 100 |  |  |  |  |  |  |  |  |
| CCCCN1C(=O)N(c2ccc(OCC)cc2)C2N(CCCC)C1C(C)(C)C2(C)C (stereo not given) | > 100 | > 100 |  | 47.5 |  | > 100 | > 100 | 88.9 |  | 63.7 |  |  |  |  |  |  |  |  |
| COc1cccc(-c2ccc3c4c2O[C@H]2C(=O)CC[C@@]5(O)[C@@H](C3)N(CC3CC3)CC[C@]425)c1 |  | 33.2 | 28.6 | 31 | 35.7 | > 100 | 42.2 | 28.3 | 37.8 | 27.9 |  |  |  |  |  |  |  |  |

Reference: PubChem BioAssay (NCI)
